Measurements reported in ChEMBL document CHEMBL4265905, “Synthesis and biological evaluation of novel Jiyuan Oridonin A-1,2,3-triazole-azole derivatives as antiproliferative agents” (Eur J Med Chem, 2018).

Legend:
Assay type in all cases: functional, cell-based
ECa-109 cell line = experiment: Antiproliferative activity against human ECA109 cells after 72 hrs by MTT assay; settings: ECa-109, 72 h
MGC-803 = experiment: Antiproliferative activity against human MGC803 cells after 72 hrs by MTT assay; settings: MGC-803, 72 h
PC-3 = experiment: Antiproliferative activity against human PC3 cells after 72 hrs by MTT assay; settings: PC-3, 72 h
MCF7 = experiment: Antiproliferative activity against human MCF7 cells after 72 hrs by MTT assay; settings: MCF7, 72 h
A549 = experiment: Antiproliferative activity against human A549 cells after 72 hrs by MTT assay; settings: A549, 72 h
SMMC-7721 = experiment: Antiproliferative activity against human SMMC7721 cells after 72 hrs by MTT assay; settings: SMMC-7721, 72 h

| SMILES | IC50 (ECa-109 cell line) | IC50 (MGC-803) | IC50 (PC-3) | IC50 (MCF7) | IC50 (A549) | IC50 (SMMC-7721) |
| --- | --- | --- | --- | --- | --- | --- |
| C=C1C(=O)[C@]23[C@H](O)[C@H]1C[C@H](O)[C@H]2[C@]12CCCC(C)(C)[C@H]1C[C@H]3O[C@@H]2OCCCn1cc(CSc2ncccn2)nn1 | 5 µM | 5.2 µM | 5.9 µM | 14.9 µM | – | – |
| C=C1C(=O)[C@]23[C@H](O)[C@H]1C[C@H](O)[C@H]2[C@]12CCCC(C)(C)[C@H]1C[C@H]3O[C@@H]2OCCCn1cc(CSc2nncs2)nn1 | 5.6 µM | 5.2 µM | 9.6 µM | 15.2 µM | – | – |
| C=C1C(=O)[C@]23[C@H](O)[C@H]1C[C@H](O)[C@H]2[C@]12CCCC(C)(C)[C@H]1C[C@H]3O[C@@H]2OCCCn1cc(CN2C(=O)SC(=C(C)C)C2=O)nn1 | 4.9 µM | 2.5 µM | 6.2 µM | 4.3 µM | 9.2 µM | 5.7 µM |
| C=C1C(=O)[C@]23[C@H](O)[C@H]1C[C@H](O)[C@H]2[C@]12CCCC(C)(C)[C@H]1C[C@H]3O[C@@H]2OCCCn1cc(CSc2nnc(C)s2)nn1 | 6.2 µM | 4.5 µM | 7.7 µM | 14.6 µM | – | – |
| C=C1C(=O)[C@]23[C@H](O)[C@H]1C[C@H](O)[C@H]2[C@]12CCCC(C)(C)[C@H]1C[C@H]3O[C@@H]2OCCCn1cc(CN2C(=O)S/C(=C\c3ccc(F)c(F)c3)C2=O)nn1 | 3.3 µM | 35 µM | 16.1 µM | 4.8 µM | – | – |
| C=C1C(=O)[C@]23[C@H](O)[C@H]1C[C@H](O)[C@H]2[C@]12CCCC(C)(C)[C@H]1C[C@H]3O[C@@H]2OCCCn1cc(CN2C(=O)S/C(=C\c3ccc(F)cc3)C2=O)nn1 | 4.7 µM | 29.7 µM | 13.4 µM | 15.7 µM | – | – |
| C=C1C(=O)[C@]23[C@H](O)[C@H]1C[C@H](O)[C@H]2[C@]12CCCC(C)(C)[C@H]1C[C@H]3O[C@@H]2OCCCn1cc(CN2C(=O)S/C(=C\c3ccccc3Cl)C2=O)nn1 | 2.6 µM | 25.9 µM | 18.4 µM | 7.9 µM | – | – |
| C=C1C(=O)[C@]23[C@H](O)[C@H]1C[C@H](O)[C@H]2[C@]12CCCC(C)(C)[C@H]1C[C@H]3O[C@@H]2OCCCn1cc(CN2C(=O)CSC2=O)nn1 | 35 µM | > 50 µM | 5.8 µM | 9.5 µM | – | – |
| C=C1C(=O)[C@]23[C@H](O)[C@H]1C[C@H](O)[C@H]2[C@]12CCCC(C)(C)[C@H]1C[C@H]3O[C@@H]2OCCCn1cc(CSc2nnnn2C)nn1 | 8.6 µM | 8.9 µM | 11.6 µM | 13.6 µM | – | – |
| C=C1C(=O)[C@]23[C@H](O)[C@H]1C[C@H](O)[C@H]2[C@]12CCCC(C)(C)[C@H]1C[C@H]3O[C@H]2O | 25.2 µM | 27.1 µM | 24.3 µM | 21.1 µM | 16.4 µM | 14.6 µM |
| C=C1C(=O)[C@]23[C@H](O)[C@H]1C[C@H](O)[C@H]2[C@]12CCCC(C)(C)[C@H]1C[C@H]3O[C@@H]2OCCCn1cc(CN2C(=O)S/C(=C\c3ccccc3)C2=O)nn1 | 4.9 µM | 20 µM | 13.2 µM | 6.6 µM | – | – |
| C=C1C(=O)[C@]23[C@H](O)[C@H]1C[C@H](O)[C@H]2[C@]12CCCC(C)(C)[C@H]1C[C@H]3O[C@@H]2OCCCn1cc(CN2C(=O)S/C(=C/CCCCC)C2=O)nn1 | 4.2 µM | 1.2 µM | 5.3 µM | 1.9 µM | 4.8 µM | 5.3 µM |
| C=C1C(=O)[C@]23[C@H](O)[C@H]1C[C@H](O)[C@H]2[C@]12CCCC(C)(C)[C@H]1C[C@H]3O[C@@H]2OCCCn1cc(CN2C(=O)S/C(=C\c3ccc([N+](=O)[O-])cc3)C2=O)nn1 | 5.4 µM | 27.8 µM | 13.2 µM | 4.9 µM | – | – |
| C=C1C(=O)[C@]23[C@H](O)[C@H]1C[C@H](O)[C@H]2[C@]12CCCC(C)(C)[C@H]1C[C@H]3O[C@@H]2OCCCn1cc(CSc2nc3ccccc3s2)nn1 | 1.4 µM | 2.1 µM | 1.6 µM | 4.2 µM | 5.8 µM | 1.8 µM |
| C=C1C(=O)[C@]23[C@H](O)[C@H]1C[C@H](O)[C@H]2[C@]12CCCC(C)(C)[C@H]1C[C@H]3O[C@@H]2OCCCn1cc(CN2C(=O)S/C(=C\c3cc(OC)c(OC)c(OC)c3)C2=O)nn1 | 11.8 µM | 10.1 µM | 13.9 µM | 4.1 µM | – | – |
| C=C1C(=O)[C@]23[C@H](O)[C@H]1C[C@H](O)[C@H]2[C@]12CCCC(C)(C)[C@H]1C[C@H]3O[C@@H]2OCCCn1cc(CN2C(=O)S/C(=C\c3ccc(OC)cc3)C2=O)nn1 | 9.3 µM | 17.3 µM | 11.5 µM | 8.9 µM | – | – |
| C=C1C(=O)[C@]23[C@H](O)[C@H]1C[C@H](O)[C@H]2[C@]12CCCC(C)(C)[C@H]1C[C@H]3O[C@@H]2OCCCn1cc(CSC2=NCCS2)nn1 | 0.8 µM | 1.7 µM | 1.4 µM | 2.6 µM | 4 µM | 3.5 µM |
| C=C1C(=O)[C@]23[C@H](O)[C@H]1C[C@H](O)[C@H]2[C@]12CCCC(C)(C)[C@H]1C[C@H]3O[C@@H]2OCCCn1cc(CN2C(=O)S/C(=C/CC)C2=O)nn1 | 2.5 µM | 2.1 µM | 8.9 µM | 4.1 µM | 7.8 µM | 3.4 µM |
| C=C1C(=O)[C@]23[C@H](O)[C@H]1C[C@H](O)[C@H]2[C@]12CCCC(C)(C)[C@H]1C[C@H]3OC2OCCCN=[N+]=[N-] (single isomer, unassigned) | 10.1 µM | 9.7 µM | 10 µM | 7.6 µM | 13.6 µM | 12 µM |
| C=C1C(=O)[C@]23[C@H](O)[C@H]1CC[C@H]2[C@@]12CO[C@]3(O)[C@@H](O)[C@@H]1C(C)(C)CC[C@@H]2O [ORIDONIN] | 33.6 µM | 34.3 µM | 43.9 µM | 64.3 µM | 25.4 µM | 30.1 µM |
